Laboratory results reported in patent US20070207952A1, “Long Acting Biologically Active Conjugates” (priority 2003, published 2007).
Where a SMILES comes first, the peptide text is derived from it. [ ]: non-standard residue; d: D form. Nle = CCCC[C@H](N)C(=O)O

These compounds were tested on HIV NL4-3 (assay: Antiviral cytotoxicity (MTT) assay with MT4 cells, HIV NL4-3). Conditions: MT-4 cells, 5 days, average of 2 or 3 experiments.
Type: cell-based, HIV-1
Procedure: Antiviral potency of the peptides was analyzed against HIV-1 HXB2 or NLA-3 strains using a cytotoxicity assay with MT4 cells as previously described (ref 1-3) with minor modifications. MT-4 cells (1.5×10^4/ml) were exposed to 200 50% tissue culture infective doses (TCID50) of viruses in the presence of various concentrations of test compound in 96 well microtiter plates and incubated at 37° C. for 5 days. Cytotoxicity of HIV was measured by the addition of 3-(4,5-dimethylthiazol-2-yl)-2,5-diphenytetrazolium bromide (MMI) solution to each well to a final concentration of 0.75 mg/ml, and incubation for 1 hour a 37° C. After incubation, cells were dissolved in isopropanoyrriton-X 100/HCl (1000:50:25) solution. Absorbance was monitored in a microplate reader (Spectramax, Molecular Devices) at 540 rm and 690 nm. MT-4 cells were obtained from the AIDS Research and Reference Reagent Program (ARRRP, Division of AIDS, NIAID, NIH: MT-4 from Dr. D. Richman). Cells were propagated in RPMI 1640 growth medium supplemented with 10% fetal bovine serum, 50U of penicillin and 50 μg of streptomycin per ml ([Ivitrogen, Carlsbad Calif.).

Structure (SMILES) | IC50 [nM]
CCCC[C@H](NC(=O)[C@H](Cc1c[nH]c2ccccc12)NC(C)=O)C(=O)N[C@@H](CCC(=O)O)C(=O)N[C@@H](Cc1c[nH]c2ccccc12)C(=O)N[C@@H](CC(=O)O)C(=O)N[C@@H](CCCNC(=N)N)C(=O)N[C@@H](CCC(=O)O)C(=O)N[C@@H](CCC(N)=O)C(=O)N[C@@H](CC(N)=O)C(=O)N[C@@H](CC(N)=O)C(=O)N[C@@H](Cc1ccc(O)cc1)C(=O)N[C@H](C(=O)N[C@@H](CO)C(=O)N[C@@H](CC(C)C)C(=O)N[C@H](C(=O)N[C@@H](Cc1c[nH]cn1)C(=O)N[C@@H](CO)C(=O)N[C@@H](CC(C)C)C(=O)N[C@H](C(=O)N[C@@H](CCC(=O)O)C(=O)N[C@@H](CCC(=O)O)C(=O)N[C@@H](CO)C(=O)N[C@@H](CCC(N)=O)C(=O)N[C@@H](CC(N)=O)C(=O)N[C@@H](CCC(N)=O)C(=O)N[C@@H](CCC(N)=O)C(=O)N[C@@H](CCC(=O)O)C(=O)N[C@@H](CCCCN)C(=O)N[C@@H](CC(N)=O)C(=O)N[C@@H](CCC(=O)O)C(=O)N[C@@H](CCC(N)=O)C(=O)N[C@@H](CCC(=O)O)C(=O)N[C@@H](CC(C)C)C(=O)N[C@@H](CC(C)C)C(N)=O)[C@@H](C)CC)[C@@H](C)CC)[C@@H](C)O [peptide 2, Ac-WXEWDREQNNYTSLIHSLIEESQNQQEKNEQELL-NH2] (Ac-W[Nle]EWDREQNNYTSLIHSLIEESQNQQEKNEQELL-NH2) | 18
CCCC[C@H](NC(=O)[C@H](Cc1c[nH]c2ccccc12)NC(C)=O)C(=O)N[C@@H](CCC(=O)O)C(=O)N[C@@H](Cc1c[nH]c2ccccc12)C(=O)N[C@@H](CC(=O)O)C(=O)N[C@@H](CCCNC(=N)N)C(=O)N[C@@H](CCC(=O)O)C(=O)N[C@@H](Cc1c[nH]c2ccccc12)C(=O)N[C@@H](CC(N)=O)C(=O)N[C@@H](CC(N)=O)C(=O)N[C@@H](Cc1ccc(O)cc1)C(=O)N[C@H](C(=O)N[C@@H](CO)C(=O)N[C@@H](CC(C)C)C(=O)N[C@H](C(=O)N[C@@H](Cc1c[nH]cn1)C(=O)N[C@@H](CO)C(=O)N[C@@H](CC(C)C)C(=O)N[C@H](C(=O)N[C@@H](CCC(=O)O)C(=O)N[C@@H](CCC(=O)O)C(=O)N[C@@H](CO)C(=O)N[C@@H](CCC(N)=O)C(=O)N[C@@H](CC(N)=O)C(=O)N[C@@H](CCC(N)=O)C(=O)N[C@@H](CCC(N)=O)C(=O)N[C@@H](CCC(=O)O)C(=O)N[C@@H](CCCCN)C(=O)N[C@@H](CC(N)=O)C(=O)N[C@@H](CCC(=O)O)C(=O)N[C@@H](CCC(N)=O)C(=O)N[C@@H](CCC(=O)O)C(=O)N[C@@H](CC(C)C)C(=O)N[C@@H](CC(C)C)C(N)=O)[C@@H](C)CC)[C@@H](C)CC)[C@@H](C)O [peptide 3, Ac-WXEWDREWNNYTSLIHSLIEESQNQQEKNEQELL-NH2] (Ac-W[Nle]EWDREWNNYTSLIHSLIEESQNQQEKNEQELL-NH2) | 7.6

The compounds below were run on HIV-1 IIIB (assay: Antiviral cytotoxicity (MTT) assay with MT4 cells, HIV-1 IIIB). Conditions: MT-4 cells, 5 days, average of 2 or 3 experiments.
Type: cell-based

Structure (SMILES) | IC50 [nM]
CCCC[C@H](NC(=O)[C@H](Cc1c[nH]c2ccccc12)NC(C)=O)C(=O)N[C@@H](CCC(=O)O)C(=O)N[C@@H](Cc1c[nH]c2ccccc12)C(=O)N[C@@H](CC(=O)O)C(=O)N[C@@H](CCCNC(=N)N)C(=O)N[C@@H](CCC(=O)O)C(=O)N[C@@H](CCC(N)=O)C(=O)N[C@@H](CC(N)=O)C(=O)N[C@@H](CC(N)=O)C(=O)N[C@@H](Cc1ccc(O)cc1)C(=O)N[C@H](C(=O)N[C@@H](CO)C(=O)N[C@@H](CC(C)C)C(=O)N[C@H](C(=O)N[C@@H](Cc1c[nH]cn1)C(=O)N[C@@H](CO)C(=O)N[C@@H](CC(C)C)C(=O)N[C@H](C(=O)N[C@@H](CCC(=O)O)C(=O)N[C@@H](CCC(=O)O)C(=O)N[C@@H](CO)C(=O)N[C@@H](CCC(N)=O)C(=O)N[C@@H](CC(N)=O)C(=O)N[C@@H](CCC(N)=O)C(=O)N[C@@H](CCC(N)=O)C(=O)N[C@@H](CCC(=O)O)C(=O)N[C@@H](CCCCN)C(=O)N[C@@H](CC(N)=O)C(=O)N[C@@H](CCC(=O)O)C(=O)N[C@@H](CCC(N)=O)C(=O)N[C@@H](CCC(=O)O)C(=O)N[C@@H](CC(C)C)C(=O)N[C@@H](CC(C)C)C(N)=O)[C@@H](C)CC)[C@@H](C)CC)[C@@H](C)O [peptide 2, Ac-WXEWDREQNNYTSLIHSLIEESQNQQEKNEQELL-NH2] (Ac-W[Nle]EWDREQNNYTSLIHSLIEESQNQQEKNEQELL-NH2) | 2.4
CCCC[C@H](NC(=O)[C@H](Cc1c[nH]c2ccccc12)NC(C)=O)C(=O)N[C@@H](CCC(=O)O)C(=O)N[C@@H](Cc1c[nH]c2ccccc12)C(=O)N[C@@H](CC(=O)O)C(=O)N[C@@H](CCCNC(=N)N)C(=O)N[C@@H](CCC(=O)O)C(=O)N[C@@H](Cc1c[nH]c2ccccc12)C(=O)N[C@@H](CC(N)=O)C(=O)N[C@@H](CC(N)=O)C(=O)N[C@@H](Cc1ccc(O)cc1)C(=O)N[C@H](C(=O)N[C@@H](CO)C(=O)N[C@@H](CC(C)C)C(=O)N[C@H](C(=O)N[C@@H](Cc1c[nH]cn1)C(=O)N[C@@H](CO)C(=O)N[C@@H](CC(C)C)C(=O)N[C@H](C(=O)N[C@@H](CCC(=O)O)C(=O)N[C@@H](CCC(=O)O)C(=O)N[C@@H](CO)C(=O)N[C@@H](CCC(N)=O)C(=O)N[C@@H](CC(N)=O)C(=O)N[C@@H](CCC(N)=O)C(=O)N[C@@H](CCC(N)=O)C(=O)N[C@@H](CCC(=O)O)C(=O)N[C@@H](CCCCN)C(=O)N[C@@H](CC(N)=O)C(=O)N[C@@H](CCC(=O)O)C(=O)N[C@@H](CCC(N)=O)C(=O)N[C@@H](CCC(=O)O)C(=O)N[C@@H](CC(C)C)C(=O)N[C@@H](CC(C)C)C(N)=O)[C@@H](C)CC)[C@@H](C)CC)[C@@H](C)O [peptide 3, Ac-WXEWDREWNNYTSLIHSLIEESQNQQEKNEQELL-NH2] (Ac-W[Nle]EWDREWNNYTSLIHSLIEESQNQQEKNEQELL-NH2) | 1.7
